Reference: patent US11498920B2, “4-(1H-imidazol-5-yl)-1H-pyrrolo[2, 3-b] pyridines for use in the treatment of leukaemias, lymphomas and solid tumors” (MASARYKOVA UNIVERZITA, priority 2018, dated 2022)
Entries after “also recorded” stand apart in the source; their conditions may differ. Read-outs that look alike come from different tables or passages of the source.

Experiments:
Mino = assay: Cytotoxicity on panel of cell lines, TMRE viability (Example II.2); assay type: cell-based; details: Homo sapiens, 24 hours, mean, control = 1, read-out: cell viability relative to control, Mino (MCL)
Description: (§1) The leukemia and lymphoma-derived cell lines [MEC-1 cell line (derived from chronic lymphocytic leukemia—CLL), Nalm-16 (acute lymphocytic leukemia—ALL), K562 (chronic myeloid leukemia—CML), HL-60 (acute myeloid leukemia—AML), Maver-1 and Mino (mantle cell lymphoma—MCL), BL-41 (Burkitt lymphoma—BL), WSU-NHL (follicular lymphoma—FL), SUDHL (diffuse large B-cell lymphoma—DLBCL)], primary CLL cells and nonmalignant control primary cells were cultured in suspension in flasks under the following conditions: RPMI 1640 medium (Hyclone) supplemented with 10% fetal bovine serum (FBS, Gibco) and 1% penicillin/streptomycin (Life Technologies), 37° C., 5% CO2 and 95% relative humidity, with optimal culture cell density 5×10^6 cells/mL in case of primary cells and 0.5-1×10^6 cells/mL in case of cell lines. The adherent cell lines [A375 (derived from malignant melanoma), MDA-MB-231 and MCF-7 (breast cancer), MIA-PA-CA and PANC1 (pancreatic cancer), PC3 (prostate cancer), OVCAR4 (ovarian cancer) and HEPG2 (hepatocellular carcinoma)] were cultured on plates under the same conditions using RPMI1640 or DMEM medium (Gibco) according to instructions provided by the distributor (DSMZ/ATCC).
(§2) The tested cell lines were incubated with inhibitors at 30 μM concentration or corresponding amount of solvent (DMSO, Sigma Aldrich) in standard culture conditions, seeded as 10^5 cells/500 μl per well in a 24-well plate. Experiments were performed in technical duplicates and 2-3 biological repetitions per cell line. Viability of cells was assessed after 24 hours.
(§3) Relative values are presented as a mean value, showing ratio to the effect of control. Relative value <1=lower viability than control condition.

HEPG2 = assay: as above; assay type: cell-based; details: Homo sapiens, 24 hours, mean, control = 1, read-out: cell viability relative to control, HEPG2 (hepatocellular carcinoma)
Description: as §1, §2, §3

WSU-NHL = assay: as above; assay type: cell-based; details: Homo sapiens, 24 hours, mean, control = 1, read-out: cell viability relative to control, WSU-NHL (FL)
Description: as §1, §2, §3

PANC1 = assay: as above; assay type: cell-based; details: Homo sapiens, PANC-1, 24 hours, mean, control = 1, read-out: cell viability relative to control, PANC1 (pancreatic cancer)
Description: as §1, §2, §3

A375 = assay: as above; assay type: cell-based; details: Homo sapiens, A-375, 24 hours, mean, control = 1, read-out: cell viability relative to control, A375 (melanoma)
Description: as §1, §2, §3

MCF-7 = assay: as above; assay type: cell-based; details: Homo sapiens, MCF7, 24 hours, mean, control = 1, read-out: cell viability relative to control, MCF-7 (breast cancer)
Description: as §1, §2, §3

MDA-MB-231 = assay: as above; assay type: cell-based; details: Homo sapiens, 24 hours, mean, control = 1, read-out: cell viability relative to control, MDA-MB-231 (breast cancer)
Description: as §1, §2, §3

HL60 = assay: as above; assay type: cell-based; details: Homo sapiens, HL-60, 24 hours, mean, control = 1, read-out: cell viability relative to control, HL60 (AML)
Description: as §1, §2, §3

OVCAR4 = assay: as above; assay type: cell-based; details: Homo sapiens, OVCAR-4, 24 hours, mean, control = 1, read-out: cell viability relative to control, OVCAR4 (ovarian cancer)
Description: as §1, §2, §3

BL-41 = assay: as above; assay type: cell-based; details: Homo sapiens, 24 hours, mean, control = 1, read-out: cell viability relative to control, BL-41 (BL)
Description: as §1, §2, §3

MEC-1 = assay: as above; assay type: cell-based; details: Homo sapiens, MEC1, 24 hours, mean, control = 1, read-out: cell viability relative to control, MEC-1 (CLL)
Description: as §1, §2, §3

Maver1 = assay: as above; assay type: cell-based; details: Homo sapiens, 24 hours, mean, control = 1, read-out: cell viability relative to control, Maver1 (MCL)
Description: as §1, §2, §3

primary CLL = assay: as above; assay type: cell-based; details: Homo sapiens, 24 hours, mean, control = 1, read-out: cell viability relative to control, primary CLL
Description: as §1, §2, §3

Nalm16 = assay: as above; assay type: cell-based; details: 24 hours, mean, control = 1, read-out: cell viability relative to control, Nalm16 (ALL)
Description: as §1, §2, §3

SUDHL = assay: as above; assay type: cell-based; details: 24 hours, mean, control = 1, read-out: cell viability relative to control, SUDHL (DLBCL)
Description: as §1, §2, §3

PC3 = assay: as above; assay type: cell-based; details: Homo sapiens, PC-3, 24 hours, mean, control = 1, read-out: cell viability relative to control, PC3 (prostate cancer)
Description: as §1, §2, §3

K562 = assay: as above; assay type: cell-based; details: Homo sapiens, 24 hours, mean, control = 1, read-out: cell viability relative to control, K562 (CML)
Description: as §1, §2, §3

MIA-PA-CA = assay: as above; assay type: cell-based; details: Homo sapiens, MIA PaCa-2, 24 hours, mean, control = 1, read-out: cell viability relative to control, MIA-PA-CA (pancreatic cancer)
Description: as §1, §2, §3

primary CLL cells [1] = details: human, 6 h, 30 µM
[2] = system: Maver-1 cells (mantle cell lymphoma); assay: Cytotoxicity, TMRE flow cytometry viability, Maver-1 cells (Example II.1); assay type: cell-based; details: Homo sapiens, Maver1, 24 hours, TMRE positive cells normalized to control, ratio to PF670462, <1 = higher cytotoxicity than PF670462, read-out: Viability of cells, Compound of formula I (100 μM), relative to PF670462 (100 μM), Maver-1 cells (mantle cell lymphoma)
primary CLL cells [3] = assay: Specificity of cytotoxic activity, TMRE viability, primary CLL cells (Example II.4); details: for dose-dependent cytotoxic effect / apoptosis of primary CLL cells (FIG. 1): 6 h, indicated doses of inhibitors; for selective toxicity towards cancer cells vs nonmalignant controls (FIG. 4, Table 3): primary CLL cells vs healthy cells
[4] = Specificity of cytotoxic activity, TMRE viability, primary nonmalignant control cells (Example II.4); assay type: cell-based; details: human, N = 4, read-out: Viability - mean % of control, Primary healthy cells
primary CLL cells [5] = assay: Cytotoxicity, TMRE flow cytometry viability, primary CLL cells (Example II.1); assay type: cell-based; details: Homo sapiens, CLL cell, 6 hours, TMRE positive cells normalized to control, ratio to PF670462, <1 = higher cytotoxicity than PF670462, read-out: Viability of cells, Compound of formula I (100 μM), relative to PF670462 (100 μM), CLL primary cells
primary CLL cells [6] = assay: Induction of apoptosis, western blotting of cleaved PARP in primary CLL cells; assay type: cell-based, human; details: 10 μM, overnight, listed as preparatory example 3

Row | Compound | viability at 30 µM (Mino) [%] | viability at 30 µM (HEPG2) [%] | viability at 30 µM (PANC1) [%] | viability at 30 µM (A375) [%] | viability at 30 µM (MCF-7) [%] | viability at 30 µM (MDA-MB-231) [%] | viability at 30 µM (HL60) [%] | viability at 30 µM (OVCAR4) [%] | viability at 30 µM (BL-41) [%] | viability at 30 µM (MEC-1) [%] | viability at 30 µM (Maver1) [%] | viability at 30 µM (primary CLL) [%] | viability at 30 µM (Nalm16) [%] | viability at 30 µM (SUDHL) [%] | viability at 30 µM (K562) [%] | viability at 30 µM (MIA-PA-CA) [%] | viability at 100 µM [2] [%] | viability at 6 h, 30 µM [4] [%] | viability at 100 µM (primary CLL cells [5]) [%] | further results
1 | Nc1nccc(-c2c(-c3ccc(F)cc3)ncn2C2CCCCC2)n1 [PF670462, reference compound] | 84 | 78 | 93 | 94 | 55 | 99 | 98 | 95 | 82 | 92 | 85 | 103 | 94 | 93 | 97 | 104 | 100 | 95.5 | 100 | viability at 30 µM (WSU-NHL): 110%; viability at 30 µM (PC3): 115%; Viability - mean % of control, Primary CLL (primary CLL cells [1]): 98.3% (N = 8); induction of apoptosis in primary CLL cells or nonmalignant control (healthy) cells (primary CLL cells [3]; 30 μM, 6 hours): not able to induce apoptosis; dose-dependent cytotoxic effect / apoptosis of primary CLL cells (FIG. 1) (primary CLL cells [3]): lacks this effect
2 | Fc1ccc(-c2ncn(C3CCCCC3)c2-c2ccnc3[nH]ccc23)cc1 [Preparative Example 3, 4-(1-cyclohexyl-4-(4-fluorophenyl)-1H-imidazol-5-yl)-1H-pyrrolo[2,3-b]pyridine] | 38 | 47 | 65 | 64 | 53 | 69 | 72 | 73 | 17 | 43 | 54 | 69 | 32 | 18 | 81 | 61 | 27 | 80.9 | 30 | cleaved PARP, marker of apoptosis (FIG. 2) (primary CLL cells [6]): Increased PARP cleavage; also recorded: increase of cleaved PARP; Viability - mean % of control, Primary CLL (primary CLL cells [3]; 30 μM, 6 hours, N = 8): 37.3% (N = 8); selective toxicity towards cancer cells vs nonmalignant controls (FIG. 4, Table 3) (primary CLL cells [3]; 30 μM, 6 hours): significantly higher cytotoxic effects towards cancer cells than nonmalignant controls; selective toxicity towards cancer cells vs nonmalignant controls (FIG. 4, Table 3) (primary CLL cells [3]; 30 μM, 6 hours, listed as prep. example 3): selective towards cancer cells; dose-dependent cytotoxic effect / apoptosis of primary CLL cells (FIG. 1) (primary CLL cells [3]; listed as preparatory example 3): induced dose-dependently
